Source: patent publication US5314880A, “Benzimidazole derivatives” (British Bio-technology Limited, priority 1989, dated 1994)

The compounds below were run against T1, PAF receptor (human platelet plasma membrane) (Homo sapiens, UniProt P25105) (assay: Inhibition of ^3 H-PAF receptor binding to human platelet plasma membrane). Details: ^3 H-PAF 0.5 nM, 0° C., 1 hour.
T1 construct: Platelet concentrates were obtained from a hospital blood bank; from tissue; host or cells: human platelets (hospital blood bank concentrates), lysed platelet membranes
T1 sequence (P25105 whole entry): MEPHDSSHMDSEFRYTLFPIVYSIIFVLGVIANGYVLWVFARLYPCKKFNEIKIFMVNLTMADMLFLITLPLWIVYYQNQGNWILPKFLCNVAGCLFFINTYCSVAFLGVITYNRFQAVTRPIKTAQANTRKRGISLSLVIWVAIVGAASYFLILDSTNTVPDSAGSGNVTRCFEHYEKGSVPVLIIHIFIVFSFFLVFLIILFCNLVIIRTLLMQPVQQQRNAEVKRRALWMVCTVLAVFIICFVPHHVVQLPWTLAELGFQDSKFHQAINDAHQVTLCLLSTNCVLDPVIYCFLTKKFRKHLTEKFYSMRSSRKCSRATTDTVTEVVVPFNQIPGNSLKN
Method: Compounds of general formula I inhibit PAF induced functions in both the cellular and tissue levels by changing the PAF binding to its specific receptor site. The ability of compounds of general formula I to inhibit platelet aggregation in human platelet-rich plasma, and to inhibit the binding of PAF to its specific receptor binding site on human platelet plasma membranes was measured in the assay described in the pharmacology example.
The inhibition of ^3 H-PAF binding to human platelet plasma membrane by compounds of general formula I was determined by isotopic labelling and filtration techniques. Platelet concentrates were obtained from a hospital blood bank. These platelet concentrates (500-2500 ml.) were centrifuged at 800 rpm for 10 minutes in a SORVALL RC3B centrifuge to remove the red blood cells present. (The word SORVALL is a trade mark.) The supernatant was subsequently centrifuged at 3,000 rpm in a SORVALL RC3B centrifuge to pellet the platelets present. The platelet rich pellets were resuspended in a minimum volume of buffer (150 Mm NaCl, 10 mM Tris, 2 mM EDTA, pH 7.5) and layered onto Ficoll-Paque gradients, 9 ml platelet concentrate to 2 ml Ficoll, and centrifuged at 1,900 rpm for 15 minutes in a SORVALL RT6000 centrifuge. This step removes the residual red blood cells and other nonspecific material such as lymphocytes from the preparation. The platelets which form a band between the plasma and the Ficoll were removed, resuspended in the above buffer and centrifuged at 3,000 rpm for 10 minutes in a SORVALL RT6000 centrifuge. The pelleted platelets were resuspended in buffer (10 mM Tris, 5 mM MgCl2, 2 mM EDTA, pH 7.0), snap-freezed in liquid N2 and allowed to thaw slowly at room temperature in order to lyse the platelets. The latter step was repeated at least 3 times to ensure proper lysis. The lysed platelets were centrifuged at 3,000 rpm for 10 minutes in a SORVALL RT6000 centrifuge and resuspended in buffer. The latter step was reseated twice in order to remove any cytoplasmic proteins which may hydrolyse the platelet activating factor (PAF) receptor. The prepared platelet membranes may be stored at -70° C. After thawing the prepared membranes were centrifuged in a SORVALL RT6000 at 3,000 rpm for 10 minutes and resuspended in assay buffer.
The assay was conducted by preparing a series of a Tris-buffered solutions of the selected antagonist of predetermined concentrations. Each of these solutions contained ^3 H-PAF (0.5 nM; 1-O-(^3 H]octadecyl-2-acetyl-sn-glycero-3-phosphoryl choline with a specific activity of 132 Ci/mmol), […], a known amount of the test antagonist, and a sufficient amount of Tris-buffer solution (10 mM Tris, 5 mM MgCl2, pH 7.0, 0.25% BSA) to make the final volume 1 ml. Incubation was initiated by the addition of 100 μg of the isolated membrane fraction to each of the above solutions at 0° C. Two control samples, one which ([…]) contained all the ingredients described above except the antagonist and the other (C2) contains C1 plus a 1000-fold excess of unlabelled PAF, were also prepared and incubated simultaneously with the test samples. After 1 hour incubation, each solution was filtered rapidly under vacuo through a WHATMAN GF/C glass fiber falter in order to separate unbound PAF from bound PAF. (The word WHATMAN is a trade mark.) The residue in each case was rapidly washed 4 times with 5 ml cold (4° C.) Tris-buffer solution. Each washed residue was dried under vacuum on a sampling manifold and placed into vials containing 20 ml of OPTIPHASE MP scintillation fluid and the radioactivity counted in a liquid scintillation counter. (The word OPTIPHASE is a trade mark.) Defining the counts for total binding with antagonist from a test sample as "TBA"; the counts for total binding from the control sample C1 as "TB"; and the counts for nonspecific binding from the control sample C2 as "NSB", the percent inhibition of each test antagonist can be determined by the following equation. […]
For `Cc1nc2ccccc2n1Cc1ccc(S(=O)(=O)N2CCC[C@H]3CCCC[C@@H]32)cc1` (relative stereo) [Example 92, trans-Decahydroquinolinyl 4-(1H-2-methylbenzimidazylmethyl) benzenesulphonamide], the IC50 was 700 nM. `CCN(C(=O)c1ccc(Cn2c(C)nc3ccccc32)cc1)C1CCCCC1` [Example 21, N-Cyclohexyl-N-ethyl 4-(1H-2-methylbenzimidazylmethyl)benzamide] gave an IC50 of 500 nM. With `Cc1nc2ccccc2n1Cc1ccc(C(=O)N(C2CCCCC2)C2CCCCC2)cc1` [Example 22, N,N-Dicyclohexyl 4-(1H-2-methylbenzimidazylmethyl)benzamide] the IC50 was 650 nM. With `CSc1nc2ccccc2n1Cc1ccc(C(=O)N(C)C2CCCCC2)cc1` [Example 26, N-Cyclohexyl-N-methyl 4-(1H-2-thiomethylbenzimidazylmethyl) benzamide] the IC50 was 3000 nM. Compound `Cc1nc2ccccc2n1Cc1ccc(S(=O)(=O)N(C)C2CCCCC2)cc1` [Example 41, N-Cyclohexyl-N-methyl 4-(1H-2-methylbenzimidazylmethyl) benzenesulphonamide] has an IC50 of 300 nM. Compound `Cc1nc2cc([N+](=O)[O-])ccc2n1Cc1ccc(S(=O)(=O)N(C)C2CCCCC2)cc1` [Example 44, N-Cyclohexyl-N-methyl 4-(1H-2-methyl-5-nitrobenzimidazylmethyl) benzenesulphonamide] has an IC50 of 5000 nM. Compound `CCN(C1CCCCC1)S(=O)(=O)c1ccc(Cn2c(C)nc3ccccc32)cc1` [Example 49, N-Cyclohexyl-N-ethyl 4-(1H-2-(2-methyl)benzimidazylmethyl) benzenesulphonamide] has an IC50 of 500 nM. For `Cc1nc2ccccc2n1Cc1ccc(S(=O)(=O)N2CCCCC2)cc1` [Example 50, Piperidinyl 4-(1H-2-methylbenzimidazylmethyl)benzenesulphonamide], the IC50 was 2000 nM. Compound `Cc1nc2ccccc2n1Cc1ccc(NC(=O)C2CCCCC2)cc1` [Example 58, N-4-(1H-2-Methylbenzimidazylmethyl)benzyl cyclohexylamide] has an IC50 of 2000 nM. `Cc1nc2ccccc2n1Cc1ccc(N(C)P(=O)(c2ccccc2)c2ccccc2)cc1` [Example 59] gave an IC50 of 500 nM. In the case of `CSC(c1ccc(C(=O)N(C)C2CCCCC2)cc1)n1cnc2ccccc21` (stereo not drawn) [Example 63, N-Cyclohexyl-N-methyl 4-(1H-benzimidazylthiomethylmethyl) benzamide], the IC50 is reported as 500 nM. Work on `Cc1nc2ccccc2n1Cc1ccc(S(=O)(=O)NCc2ccccc2Cl)cc1` [Example 80, N-2-Chlorobenzyl 4-(1H-2-methylbenzimidazylmethyl) benzenesulphonamide] yielded an IC50 of 900 nM.
